PubChem BioAssay (NCI)
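Values below derive from 48-hour exposures of cells grown in 96-well plates, with endpoints linearly interpolated between the two concentrations bracketing the appropriate inhibition level. GI50 is the concentration that inhibits growth by half. The concentration for full growth arrest is given as TGI.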

Assays:
Assay in all cases: NCI tumour cell line growth inhibition, 48 h
[1] = test system: 786-0 renal
[2] = test system: A498 renal
[3] = test system: A549 NSCLC
[4] = test system: ACHN renal
[5] = test system: BT-549 breast
[6] = test system: CAKI-1 renal
[7] = test system: CCRF-CEM leukemia
[8] = test system: COLO 205 colon
[9] = test system: DLD-1 colon
[10] = test system: DMS 114 small cell lung
[11] = test system: DMS 273 small cell lung
[12] = test system: DU-145 prostate
[13] = test system: EKVX NSCLC
[14] = test system: HCC-2998 colon
[15] = test system: HCT-116 colon
[16] = test system: HCT-15 colon
[17] = test system: HL-60(TB) leukemia
[18] = test system: HOP-18 NSCLC
[19] = test system: HOP-62 NSCLC
[20] = test system: HOP-92 NSCLC
[21] = test system: HS 578T breast
[22] = test system: HT29 colon
[23] = test system: IGROV1 ovarian
[24] = test system: K-562 leukemia
[25] = test system: KM12 colon
[26] = test system: KM20L2 colon
[27] = test system: LOX IMVI melanoma
[28] = test system: M14 melanoma
[29] = test system: MALME-3M melanoma
[30] = test system: MCF7 breast
[31] = test system: MDA-MB-231 breast
[32] = test system: MDA-MB-435
[33] = test system: MOLT-4 leukemia
[34] = test system: NCI-H226 lung
[35] = test system: NCI-H23 lung
[36] = test system: NCI-H460 lung
[37] = test system: NCI-H522 lung
[38] = test system: NCI/ADR-RES ovarian
[39] = test system: OVCAR-3 ovarian
[40] = test system: OVCAR-4 ovarian
[41] = test system: OVCAR-5 ovarian
[42] = test system: OVCAR-8 ovarian
[43] = test system: P388 leukemia
[44] = test system: P388/ADR leukemia
[45] = test system: PC-3 prostate
[46] = test system: RPMI-8226 leukemia
[47] = test system: RXF 393 renal
[48] = test system: SF-268 CNS
[49] = test system: SF-295 CNS
[50] = test system: SF-539 CNS
[51] = test system: SK-MEL-2 melanoma
[52] = test system: SK-MEL-28 melanoma
[53] = test system: SK-MEL-5 melanoma
[54] = test system: SK-OV-3 ovarian
[55] = test system: SN12C renal
[56] = test system: SN12K1 renal
[57] = test system: SNB-19 CNS
[58] = test system: SNB-75 CNS
[59] = test system: SNB-78 CNS
[60] = test system: SR leukemia
[61] = test system: SW-620 colon
[62] = test system: TK-10 renal
[63] = test system: U251 CNS
[64] = test system: UACC-257 melanoma
[65] = test system: UACC-62 melanoma
[66] = test system: UO-31 renal
[67] = test system: XF 498 CNS

COc1ccc2[nH]c3c(C)c4ccncc4c(C)c3c2c1
GI50 [1]: 0.0436 µM | TGI [1]: 1.49 µM | TGI [2]: 2.1 µM | TGI [3]: 2.15 µM | GI50 [4]: 0.0194 µM | TGI [4]: 1.51 µM | GI50 [5]: 0.757 µM | TGI [5]: 2.11 µM | TGI [6]: 5.49 µM | TGI [7]: 4.7 µM | TGI [8]: 1.6 µM | TGI [9]: 1.33 µM | TGI [10]: 4.49 µM | TGI [11]: 1.95 µM | GI50 [12]: 0.13 µM | TGI [12]: 1.59 µM | TGI [13]: 2.71 µM | TGI [14]: 5.57 µM | TGI [15]: 1.5 µM | TGI [16]: 2.3 µM | TGI [17]: 2.42 µM | TGI [18]: 6.44 µM | TGI [19]: 3.09 µM | TGI [20]: 0.935 µM | GI50 [21]: 1.13 µM | TGI [21]: 3.55 µM | TGI [22]: 2.4 µM | TGI [23]: 2.41 µM | TGI [24]: 1.43 µM | TGI [25]: 1.68 µM | TGI [26]: 7.32 µM | TGI [27]: 4.29 µM | GI50 [28]: 0.29 µM | TGI [28]: 1.63 µM | TGI [29]: 5.73 µM | TGI [30]: 2.2 µM | GI50 [31]: 0.307 µM | TGI [31]: 1.87 µM | GI50 [32]: 0.208 µM | TGI [32]: 1.67 µM | TGI [33]: 0.802 µM | TGI [34]: 3.89 µM | TGI [35]: 2.1 µM | TGI [36]: 0.892 µM | TGI [37]: 2.47 µM | TGI [38]: 1.96 µM | TGI [39]: 2.46 µM | TGI [40]: 1.58 µM | TGI [41]: 4.07 µM | TGI [42]: 1.92 µM | TGI [43]: 1.87 µM | TGI [44]: 3.47 µM | GI50 [45]: 0.0843 µM | TGI [45]: 2.02 µM | TGI [46]: 2.73 µM | TGI [47]: 0.477 µM | TGI [48]: 4.65 µM | TGI [49]: 1.26 µM | TGI [50]: 1.45 µM | TGI [51]: 5.36 µM | TGI [52]: 9.06 µM | TGI [53]: 2.86 µM | TGI [54]: 5.16 µM | TGI [55]: 2.54 µM | TGI [56]: 1.31 µM | TGI [57]: 7.83 µM | TGI [58]: 2.77 µM | TGI [59]: 11.7 µM | TGI [60]: 6.83 µM | TGI [61]: 1.56 µM | GI50 [62]: 1.12 µM | TGI [62]: 4.37 µM | TGI [63]: 4.19 µM | TGI [64]: 8.12 µM | TGI [65]: 2.54 µM | TGI [66]: 4.25 µM | TGI [67]: 6.66 µM
